This note sets out measurements from ChEMBL document CHEMBL5728321, “Therapeutically active compounds and their methods of use” (2021).

The test can be described thus: In Vitro Assays for IDH1m (R132H or R132C) Inhibitors: In the primary reaction, the reduction of α-KG acid to 2-HG is accompanied by a concomitant oxidation of NADPH to NADP. The amount of NADPH remaining at the end of the reaction time is measured in a secondary diaphorase/resazurin reaction in which the NADPH is consumed in a 1:1 molar ratio with the conversion of resazurin to the highly fluorescent resorufin. […] The mixture of compound, enzyme, and cofactor is pre-incubated at room temperature for 1 hr prior to the addition of alpha-ketoglutarate. To perform the secondary reaction, 10 uL of 1× buffer containing 36 μg/ml diaphorase and 30 mM resazurin is added to the primary reaction and incubated for a further 5 minutes at 25° C. Florescence is read on a Spectramax platereader at Ex 544 Em 590. Compounds or compound dilutions are prepared in 100% DMSO concentration and diluted 1:50 into the final reaction. IDH1 wt/IDH1 R132C is assayed under similar conditions except that 1× Buffer is 50 mM K2HPO4, pH 6.5; 10 mM MgCl2; 10% glycerol; 0.03% (w/v) bovine serum albumin and final concentrations are 0.4 ug/mL (4.3 nM) IDH1 wt/IDH1 R132C heterodimer, 0.02 mM alpha-ketoglutarate, 4 uM NADPH, and either 300 μM NADP (saturated) or 30 μM NADP (without saturation). IC50s are determined.IDH1 or IDH2 wildtype (wt) and mutant heterodimers are expressed and purified by methods known in the art. For example, IDH1wt/R132m heterodimer is expressed and purified as follows. Co-expression of IDH1wt-his and IDH1R132C-flag is carried out in sf9 insect cells. Cells (25 g) are resuspended in 250 ml of 50 mM Tris, 500 mM NaCl, pH7.4, at 4° C. with stirring. Cells are disrupted with 4 passes through an M-Y110 Micro fluidizer (Microfluidics) set to 500 psi, and then centrifuged at 22,000 rcf for 20 min at 4° C. The supernatant is harvested and loaded at 15 cm/h on a Histrap FF 5*1 ml column (GE) which is equilibrated with 50 mM Tris, 500 mM NaCl, pH7.4. Host cell contaminants are removed by washing the column with equilibration buffer followed by equilibration buffer containing 20 mM imidazole and 60 mM imidazole to baseline. IDH1wt-his homodimer and IDH1wt-his/IDH1R132C-flag are eluted by equilibration buffer containing 250 mM imidazole. Fractions eluted by 250 mM imidazole are pooled together and loaded at 15 cm/h onto a column pre-packed with 10 ml ANTI-FLAG® M2 Affinity Gel (Sigma), the column is equilibrated with 50 mM Tris, 500 mM NaCl, pH7.4. After washing with equilibration buffer, IDH1wt-his/IDH1R132C-flag heterodimer is eluted by equilibration buffer containing flag peptide (0.2 mg/ml). Aliquots of IDH1wt-his/IDH1R132C-flag are flash frozen in liquid N2 and stored at −80° C. Same conditions are used for the purification of IDH1wt-his/IDH1R132H-flag. On the technique in general: Resazurin is reduced to fluorescent resorufin, in cell work by metabolically active cells.
Take `N#CC1(c2cc(Nc3nc(NCC(F)(F)F)nc(-c4cccc(C(F)(F)F)n4)n3)ccn2)CC1`: the IC50 result is “in the range around 75 nM”.
Regarding `N#CC1(c2cc(Nc3nc(NC4CC5(C4)CC(F)(F)C5)nc(-c4cccc(C(F)(F)F)n4)n3)ccn2)CC1`, the IC50 entry is “in the range around 75 nM”.
The value for `N#CC1(c2cc(Nc3nc(NC4CCC(F)(F)CC4)nc(-c4cccc(C(F)(F)F)n4)n3)ccn2)CC1` was less than 50 nM; that for `N#CC1(c2cc(Nc3nc(NC4CCC(F)(F)C4)nc(-c4cccc(C(F)(F)F)n4)n3)ccn2)CC1` (centres undefined) was less than 50 nM.

A word on the IC50: it is the midpoint of a concentration-inhibition curve.
